In the Deep4Chem optical property database:
Values belong to the molecule of their own block, whether it stands above or below them.

Assay: photoluminescence quantum yield (fraction); solvent given as SMILES

Structure (SMILES): c1ccc(-c2ccc3c4ccc(-c5ccccc5)c5c(-c6ccccc6)ccc(c6cccc2c63)c54)cc1
photoluminescence quantum yield (in ClCCl): 0.94

Structure (SMILES): Cc1cc(C)c(B(c2c(C)cc(C)cc2C)N2c3ccccc3C3(c4ccccc4-c4ccccc43)c3ccccc32)c(C)c1
photoluminescence quantum yield (in C1CCCCC1): 0.978
photoluminescence quantum yield (in Cc1ccccc1): 0.942
photoluminescence quantum yield (in ClCCl): 0.539

Structure (SMILES): CCCCCCCCCCCCNc1cccc2[n+]1[B-](F)(F)n1c(c3cccc4cccc1c43)=N2
photoluminescence quantum yield (in C1CCOC1): 0.18
photoluminescence quantum yield (in CC#N): 0.12
photoluminescence quantum yield (in CCCCCC): 0.58
photoluminescence quantum yield (in Cc1ccccc1): 0.36
photoluminescence quantum yield (in ClCCl): 0.25

Structure (SMILES): CCOC(=O)CN1C(=O)C2=C(c3ccc(N4CCCCC4)cc3)N(CC(=O)OCC)C(=O)C2=C1c1ccccc1
photoluminescence quantum yield (in CC#N): 0.01
photoluminescence quantum yield (in CS(C)=O): 0.12
photoluminescence quantum yield (in Cc1ccccc1): 0.34

Structure (SMILES): CCc1c(C)c2n(c1C)[B-](F)(F)[N+]1=C(NCc3ccc(OC)cc3)C(SC#N)=CC1=C2C
photoluminescence quantum yield (in CC#N): 0.83
photoluminescence quantum yield (in CCCCCC): 0.91
photoluminescence quantum yield (in CCOC(C)=O): 0.9
photoluminescence quantum yield (in CO): 0.85
photoluminescence quantum yield (in ClCCl): 0.93

Structure (SMILES): CCOC(=O)c1cc(C(=O)OCC)c2c(C)ccc(OC(=O)OC(C)(C)C)c2n1
photoluminescence quantum yield (in CCO): 0.22

Structure (SMILES): COc1cc2c(cc1-c1ccc(F)cc1)Cc1c3c(c4c(c1-2)-c1cc(OC)c(-c2ccc(F)cc2)cc1C4)C(=O)N(CCC(C)C)C3=O
photoluminescence quantum yield (in C1CCOC1): 0.52

Structure (SMILES): COc1ccccc1-c1nc(-c2ccc(C(F)(F)F)cc2)n(-c2ccc(C)cc2)c1-c1ccccc1OC
photoluminescence quantum yield (in CC(C)O): 0.65
photoluminescence quantum yield (in CCCCCC): 0.49
photoluminescence quantum yield (in CO): 0.6
photoluminescence quantum yield (in CS(C)=O): 0.49
photoluminescence quantum yield (in ClCCl): 0.27

Structure (SMILES): CCC1(CC)c2ccccc2-c2ccc(C#Cc3ccc4ccc5cccc6ccc3c4c56)cc21
photoluminescence quantum yield (in Cc1ccccc1): 0.99

Structure (SMILES): CCCCCCCCCCCCn1cccc1/C=C/c1ccc(OCCCC)c2c(/C=C/c3cccn3CCCCCCCCCCCC)ccc(OCCCC)c12
photoluminescence quantum yield (in Cc1ccccc1): 0.35

Structure (SMILES): C[Si](C)(C)[Si](C)(C)c1c2ccccc2cc2ccccc12
photoluminescence quantum yield (in C1CCCCC1): 0.92
photoluminescence quantum yield (in CC#N): 0.65

Structure (SMILES): CN(C)c1ccc(-c2ccc(-c3nc(C#N)c(C#N)n3C)cc2)cc1
photoluminescence quantum yield (in C1CCCCC1): 0.98
photoluminescence quantum yield (in CC#N): 0.013
photoluminescence quantum yield (in CO): 0.011
photoluminescence quantum yield (in ClC(Cl)Cl): 0.73

Structure (SMILES): Cc1ccc(CN(Cc2ccc(C)cc2)c2nc(C#N)c(N(Cc3ccc(C)cc3)Cc3ccc(C)cc3)nc2C#N)cc1
photoluminescence quantum yield (in ClC(Cl)Cl): 0.69

Structure (SMILES): Cc1cc(C)c([B-]2(c3c(C)cc(C)cc3C)[O+]=P(c3ccccc3)(c3ccccc3)c3ccsc3-c3sccc32)c(C)c1
photoluminescence quantum yield (in C1CCOC1): 0.23

Structure (SMILES): CC(C)=CCN1C(=O)c2cccc3c2c(cc2nc(C)oc23)C1=O
photoluminescence quantum yield (in CCO): 0.011

Structure (SMILES): COc1ccccc1-c1nc2c3ccccc3c3ccccc3c2o1
photoluminescence quantum yield (in Cc1ccccc1): 0.53

Structure (SMILES): c1ccc(N2c3ccc4ccccc4c3-c3c4ccccc4cn[n+]3[B-]2(c2ccccc2)c2ccccc2)cc1
photoluminescence quantum yield (in Cc1ccccc1): 0.05

Next, values leading:

photoluminescence quantum yield (in C1CCOC1): 0.29
Structure (SMILES): CCN(CC)c1ccc(C(=C(c2ccc(B(c3c(C)cc(C)cc3C)c3c(C)cc(C)cc3C)cc2)c2ccc(B(c3c(C)cc(C)cc3C)c3c(C)cc(C)cc3C)cc2)c2ccc(N(CC)CC)cc2)cc1

photoluminescence quantum yield (in ClCCl): 0.29
Structure (SMILES): COc1ccc2cc(C3=[N+]4C(=Nc5c(-c6ccc7ccccc7c6)cc(-c6ccc7cc(OC)ccc7c6)n5[B-]4(F)F)C(c4ccc5ccccc5c4)=C3)ccc2c1

photoluminescence quantum yield (in ClC(Cl)Cl): 0
Structure (SMILES): Cc1nc2c(ccc3c2sc(/C=C/c2ccc(N(c4ccccc4)c4ccccc4)cc2)[n+]3C)s1

photoluminescence quantum yield (in C1CCCCC1): 0.03
photoluminescence quantum yield (in C1CCOC1): 0.44
photoluminescence quantum yield (in C1COCCO1): 0.28
photoluminescence quantum yield (in CC#N): 0.28
photoluminescence quantum yield (in CCCCCC): 0.03
photoluminescence quantum yield (in CO): 0.03
photoluminescence quantum yield (in ClC(Cl)Cl): 0.14
Structure (SMILES): F[B-]1(F)n2ccnc2-c2cccc[n+]21

photoluminescence quantum yield (in ClCCl): 0.2
Structure (SMILES): CCCCC(CC)COc1ccc2nc(-c3ccc(-c4cccs4)s3)sc2c1 (stereo unspecified)

photoluminescence quantum yield (in CO): 0.09
Structure (SMILES): COc1ccc(-c2c(OC)ccc3nnn(C[C@H](N)C(=O)O)c23)cc1

photoluminescence quantum yield (in C1CCOC1): 0.59
Structure (SMILES): COc1ccc(-c2cc3c(cc2OC)-c2c(c4c(c5c2-c2cc(OC)c(-c6ccc(OC)cc6)cc2C5)C(=O)N(CCC(C)C)C4=O)C3)cc1

photoluminescence quantum yield (in C1CCCCC1): 0.05
photoluminescence quantum yield (in CO): 0.74
photoluminescence quantum yield (in CS(C)=O): 0.84
photoluminescence quantum yield (in ClC(Cl)Cl): 0.78
photoluminescence quantum yield (in c1ccccc1): 0.22
Structure (SMILES): CCC1=C(C)C(=O)n2c1cc1c(c(C)c(C(=O)OCC(C)C)n1CC(C)C)c2=O

photoluminescence quantum yield (in C1CCCCC1): 0.04
Structure (SMILES): C1=Cc2ccc3ccccc3c2N(c2ccccc2)B1c1ccccc1

photoluminescence quantum yield (in C1CCOC1): 0.56
Structure (SMILES): CCC1(CC)c2ccccc2-c2c1c1c(c3c2C(CC)(CC)c2cc(B(c4c(C)cc(C)cc4C)c4c(C)cc(C)cc4C)ccc2-3)C(CC)(CC)c2ccccc2-1

photoluminescence quantum yield (in C1CCOC1): 0.063
Structure (SMILES): Cc1cc(C)c([B-]2(c3c(C)cc(C)cc3C)[O+]=P(c3ccccc3)(c3ccccc3)c3cc(C#Cc4ccccc4)sc3-c3sc(C#Cc4ccccc4)cc32)c(C)c1

photoluminescence quantum yield (in ClCCl): 0.00044
Structure (SMILES): COc1cc2c(cc1OC)C1=C[C@H](c3ccc(Cl)cc3)C3(C(C#N)=C(C#N)N1CC2)c1ccccc1-c1ccccc13

photoluminescence quantum yield (in ClCCl): 0.485
Structure (SMILES): Cc1cc2oc3ccccc3c2c2[nH]c3ccccc3c12

photoluminescence quantum yield (in C1CCOC1): 0.27
Structure (SMILES): CCN(CC)c1ccc(-c2nc3c4ccccc4n(C)c3nc2-c2ccc(B(c3c(C)cc(C)cc3C)c3c(C)cc(C)cc3C)cc2)cc1
